Test results taken from US12558322B2, “Control method of local release for target compounds by using patterning hydrogel to nanoporous membrane” (KNU-Industry Cooperation Foundation, priority 2018, dated 2026).

Assays:
YD-10B cells [1] = experiment: Live/dead assay of YD-10B cells on 5-FU containing HAMA hydrogel arrays; type: cell-based, human; conditions: 5 days
Protocol: (§1) To estimate the rate of apoptosis of tumor cells at a controlled release anticancer drug rate, YD-10B cells derived from human oral squamous cancer were cultured on a 15% (w/v) HAMA hydrogel-arrayed amphipathic membrane. The amphipathic membrane was prepared at a size of 20 mm×20 mm and was fixed at the bottom of the cell culture dish with the use of PDMS blocks as supporters to prevent floating in the culture media. Overall, YD-10B cells (100 μL, cell density of 1.0×10^6 cells/mL) were seeded on the HAMA hydrogel-arrayed amphipathic membrane that contained 5-FU. As a control group, YD-10B cells without 5-FU were seeded on the array. The cells were cultured in culture media [RPMI (RPMI 1640 medium, HEPES)] (Gibco, CA, USA) with 10% fetal bovine serum (FBS) (Gibco) and 1% penicillin/streptomycin (Gibco) in an incubator (MCO-18AIC, Sanyo, Japan) at 5% CO2 and 37.5° C. After 5 days, the live/dead assay [live/dead viability/cytotoxicity kit (Invitrogen, MA, USA)] was conducted to evaluate anticancer performance. The solution for the live/dead assay was mixed with 20 μL of Ethidium Homodimer-1 (EthD-1) and 5 μL of calcein-AM in 10 mL of DPBS in the dark room. The culture media were eliminated using a micropipette, and the residual media were washed twice by DPBS. The staining solution was added on the arrayed amphipathic membrane and incubated for 40 min. The viability of the YD-10B cells on the amphipathic membrane was evaluated by a fluorescent microscope (Zeiss, Germany). The cytoplasm of live cells was stained with calcein-AM (green fluorescence, excitation wavelength: 488 nm/emission wavelength: 515 nm), while the DNA of dead cells was stained with EthD-1 as fluorescence red (excitation: 570 nm/emission: 602 nm). Additionally, the actin filaments of cells were stained to verify the colony formations of tumor cells. For the fixation of cultured cells, the membrane was washed with DPBS and was immersed in 4% paraformaldehyde (PFA) for 15 min. Triton X-100 was used for permeabilization for 5 min at −20° C. on a PFA-immersed membrane. […]

YD-10B cells [2] = experiment: Actin filament staining of YD-10B cells (colony formation); type: cell-based, human; conditions: 5-FU encapsulated in HAMA hydrogel array, 5 days
Protocol: as §1, with “The solution for the live/dead assay was mixed with 20 μL of Ethidium Homodimer-1 (EthD-1) and 5 μL of calcein-AM in 10 mL of DPBS in the dark room. The culture media were eliminated using a micropipette, and the residual media were washed twice by DPBS. The staining solution was added on the arrayed amphipathic membrane and incubated for 40 min.” left out, “nm).” for “nm). Additionally, the actin filaments of cells were stained to verify the colony formations of tumor cells. For the fixation of cultured cells, the membrane was washed with DPBS and was immersed in 4% paraformaldehyde (PFA) for 15 min. Triton X-100 was used for permeabilization for 5 min at −20° C. on a PFA-immersed membrane.”

In the case of `O=c1[nH]cc(F)c(=O)[nH]1` [5-FU], the “reduction of adhesion rate (calcein-AM expression area)” value (YD-10B cells [1]; 5-FU encapsulated in HAMA hydrogel array, vs without 5-FU) is reported as “approximately 48%”, the “viable cells (live/dead assay)” value (YD-10B cells [1]; HAMA hydrogel arrays containing 5-FU) is reported as “only a few viable cells were visible” and the “adhesion area (calcein-AM)” value (YD-10B cells [1]; cultured with 5-FU in HAMA hydrogel array) is reported as “approximately 19,321 μm^2”. The “cell growth and colony formation” value (YD-10B cells [2]) was “can inhibit the growth and proliferation of cells”.
